Where a SMILES comes first, the peptide text is derived from it. Bridges are numbered along the chain shown (N, C = ends). Where no end group is shown, it is not given here. [ ]: non-standard residue; d: D form. PEG20 = NCCOCCOCCOCCOCCOCCOCCOCCOCCOCCOCCOCCOCCOCCOCCOCCOCCOCCOCCOCCOCCC(=O)O
Target: T1, Fc region of trastuzumab (Homo sapiens, UniProt P01857)
T1 construct: made in house; host or cells: recombinant CHO cell lines
Test: Competitive FP binding assay against Fc-III-FAM
Details: for binding to the Fc region of trastuzumab (in words): competitive FP against Fc-III-FAM
Experimental: The competitive FP measurements were performed on SpectraMax Paradigm Multi-Mode Detection Platform (Molecular Devices) in flat-bottom 384-well Corning microplates (Merck KGaA), using excitation and emission wavelengths of 485 nm and 535 nm, respectively. The acquisition time was 700 milliseconds and the read height was 1 mm. All reagents used in the assay were diluted in PBS containing 0.05% Tween 20.
The mixture was incubated at 27° C. for 15 min and the fluorescence signal was red on a Spectramax Paradigm. All sample preparations were done in PBS pH 7.4 or 7.0 containing 0.05% Tween. Each experiment was performed in triplicate.

IC50 [µM]	binding to the Fc region of trastuzumab (in words)	Compound
36.5 ± 15.6	–	CC(C)C[C@@H]1NC(=O)[C@H](Cc2c[nH]cn2)NC(=O)[C@H](Cc2c[nH]c3ccccc23)NC(=O)[C@H](C)NC(=O)[C@@H](NC(=O)[C@@H](N)CC(=O)O)CSSC[C@@H](C(=O)N[C@H](C(N)=O)[C@@H](C)O)NC(=O)[C@H](C)NC(=O)[C@H](Cc2c[nH]c3ccccc23)NC(=O)[C@H](CC(C)C)NC(=O)[C@H](CCC(=O)O)NC(=O)CNC1=O [Compound 13] (H-DCAWHLGELWACT-NH2; disulfide 2-12 (inferred))
10.7 ± 11.9	impaired peptide binding	CC(C)C[C@H](NC(=O)[C@H](Cc1c[nH]cn1)NC(=O)[C@H](Cc1c[nH]c2ccccc12)NC(=O)[C@H](C)NC(=O)[C@H](C)NC(=O)[C@H](CC(=O)O)NC(=O)CCOCCOCCOCCOCCOCCOCCOCCOCCOCCOCCOCCOCCOCCOCCOCCOCCOCCOCCOCCOCCN)C(=O)NCC(=O)N[C@@H](CCC(=O)O)C(=O)N[C@@H](CC(C)C)C(=O)N[C@H](C(=O)N[C@@H](Cc1c[nH]c2ccccc12)C(=O)N[C@@H](C)C(=O)N[C@H](C(N)=O)[C@@H](C)O)C(C)C [Compound 16] (H-[PEG20]DAAWHLGELVWAT-NH2)
0.061 ± 0.033	high affinity	CC(C)C[C@@H]1NC(=O)[C@H](Cc2c[nH]cn2)NC(=O)[C@H](Cc2c[nH]c3ccccc23)NC(=O)[C@H](C)NC(=O)[C@@H](NC(=O)[C@H](CC(=O)O)NC(=O)[C@@H]2CCCN2C(=O)[C@@H]2CCCN2C(=O)[C@@H]2CCCN2C(=O)[C@@H]2CCCN2C(=O)[C@@H]2CCCN2C(=O)[C@@H]2CCCN2C(=O)CNC(=O)CNC(=O)[C@@H](N)CO)CSSC[C@@H](C(=O)N[C@H](C(N)=O)[C@@H](C)O)NC(=O)[C@H](Cc2c[nH]c3ccccc23)NC(=O)[C@H](C(C)C)NC(=O)[C@H](CC(C)C)NC(=O)[C@H](CCC(=O)O)NC(=O)CNC1=O [Compound 2] (H-SGGPPPPPPDCAWHLGELVWCT-NH2; disulfide 11-21 (inferred))
–	impaired peptide binding	NH2—(PEG)20—CH2CH2—CO—DCAWHLGELWACT—NH2 ([PEG20]DCAWHLGELWACT-NH2; disulfide 3-13 (inferred)) [Compound 15]

— patent US20230046947A1, “REACTIVE CONJUGATES” (Debiopharm Research & Manufacturing S.A., priority 2019, published 2023)
